# Like-named read-outs stand apart in the source and are kept apart here.
# Tests used:
# Botrytis cinerea = test: Sterilization test (growth inhibition of Botrytis cinerea in potato dextrose medium, 96-well microplate, turbidity 405 nm); format: cell-based; details: for inhibition at 10 ppm / inhibition at 2 ppm / inhibition at 0.02 ppm / inhibition at 0.4 ppm / inhibition at 0.08 ppm: Botrytis cinerea, read-out: Growth inhibition rate; for inhibition at 0.4 ppm: drug II alone 0.4 ppm
# Procedure: The solutions thus obtained were mixed to prepare fungicidal compositions.
# Conidia of Botrytis cinerea were added to and dispersed in a potato dextrose culture medium. A fungicidal composition was added thereto and mixed. This was dispensed in a 96-well microplate and cultured at 20° C. for 3 days in a dark setting. Then, the turbidity was measured at a wavelength of 405 nm in a microplate reader. From comparison with the measured value of turbidity in the case of non-treatment (without the addition of the fungicidal composition), the growth inhibition rate of Botrytis cinerea (%) was calculated. The test was carried out in duplicate. Further, the expected value of the growth inhibition was calculated based on Colby's equation.
# (§1) In addition, the Colby's equation is E=M+N−MN/100. Here, E is the expected value of a growth inhibition rate (%), M is the growth inhibition rate (%) calculated from the measurement with the use of the drug I alone, and N is the growth inhibition rate (%) calculated from the measurement with the use of the drug II alone. Additionally, in Tables, the expected values with the use of the drug alone were not shown, because they were the same as the values calculated from the measurement.
# At the concentrations shown in Tables 6 to 8, the drug I and the drug II were dissolved separately in dimethyl sulfoxide. The obtained solution was mixed to prepare a fungicidal composition.
# Using the same methods as in Example 1 and Comparative Example 1, the sterilization test was carried out. Additionally, in Tables, the expected values with the use of the drug alone were not shown, because they were the same as the values calculated from the measurement.
# [1] = test system: cucumber gray mold disease pathogens (Botrytis cinerea); test: Control test for cucumber gray mold disease (sprayed cucumber seedlings); format: in vivo; details: for pest or weed control at 25 ppm: drug II alone 25 ppm; for pest or weed control at 400 ppm: drug II alone 400 ppm
# Procedure: The drug I and the drug II were dissolved in an organic solvent and a surfactant, and the prepared mixed emulsifiable concentrate was diluted with water to a predetermined concentration, and sprayed to cucumber seedlings that had been cultivated in unglazed pots (cultivar “Sagamihanjiro” cotyledon stage). Additionally, in Tables, the symbol A indicating the drug I represents a nitrogen-containing heterocyclic compound represented by the formula (A), the symbol B indicating the drug I represents a nitrogen-containing heterocyclic compound represented by the formula (B), and the symbol C indicating the drug I represents a nitrogen-containing heterocyclic compound represented by the formula (C). Further, the number indicating the drug II represents each of the compounds described in the numbers described above. Additionally, “-” in Tables represents that the drug was not used.
# After air-drying at room temperature, a suspension of the conidia of cucumber gray mold disease pathogens (Botrytis cinerea) was inoculated by dropwise addition and held in a dark room at 20° C. with a high humidity for 3, 4, or 5 days. By investigation on the state of lesion appearance in leaves with comparison with a non-treatment case, the controlling effect was determined. The test was carried out in duplicate. In addition, the expected value of the controlling effect was calculated based on Colby's equation.
# At the same time, in Comparative Example, in the case of using the drug I only and the case of using the drug II only, the test was carried out by the same method.
# as §1, with “Additionally,” for “In addition,”, “the controlling effect” for “a growth inhibition rate”, “controlling effect” for “growth inhibition rate”, “were” for “were not shown, because they were”, “measurement, and were thus not shown.” for “measurement.”
# [2] = Example 1 (Tables 1-5), drug II alone 10 ppm
# [3] = Example 1 (Tables 1-5), drug II alone 2 ppm
# [4] = Example 2 (Tables 6-8), drug II alone 10 ppm
# [5] = Example 1 (Tables 1-5), drug II alone 0.02 ppm
# [6] = Botrytis cinerea, 96 h, 4 days after inoculation, read-out: Control effect (%)
# [7] = Example 1 (Tables 1-5), drug II alone 0.08 ppm
compound,measurement,setting,value
"O=C(Cc1ccccc1)N/C(=N\OCC1CC1)c1c(C(F)(F)F)ccc(F)c1F [Drug 1, Cyflufenamid]",inhibition at 10 ppm,Botrytis cinerea; [2],9%
same,pest or weed control at 25 ppm,"[1]; Botrytis cinerea, 120 h, Table 10, 5 days after inoculation, read-out: Control effect",0%
"C[C@@]1(c2ccc(Oc3ccccc3)cc2)OC(=O)N(Nc2ccccc2)C1=O (racemic) [Drug 9, Famoxadone]",inhibition at 2 ppm,Botrytis cinerea; [3],0%
"CCOP(=S)(OCC)Oc1nc(Cl)c(Cl)cc1Cl [Drug 48, Chlorpyrifos]",inhibition at 10 ppm,Botrytis cinerea; [4],0%
"O=C1C2CC=CCC2C(=O)N1SC(Cl)(Cl)Cl (stereo not shown) [Drug 33, Captan]",inhibition at 0.02 ppm,Botrytis cinerea; [5],28%
"CC(=O)O.CC(=O)O.CC(=O)O.NC(N)=NCCCCCCCCNCCCCCCCCN=C(N)N [Drug 4, Iminoctadine acetate]",Growth inhibition rate,Botrytis cinerea; [5],27%
same,Control effect,"[1]; Table 10, 5 days after inoculation, drug II alone 1.6 ppm",0%
same,Control effect,"[1]; Table 10, 5 days after inoculation, drug II alone 6.3 ppm",41%
"CC1COC(Cn2cncn2)(c2ccc(Oc3ccc(Cl)cc3)cc2Cl)O1 (stereo not shown) [Drug 21, Difenoconazole]",inhibition at 0.4 ppm,Botrytis cinerea; Example 1 (Tables 1-5),36%
"Cc1nc(C(F)(F)F)c(C(=O)Nc2c(Br)cc(OC(F)(F)F)cc2Br)s1 [Drug 56, Thifluzamide]",inhibition at 10 ppm,Botrytis cinerea; [4],28%
Cn1nnnc1/C(=N\OCc1cccc(NC(=O)OC(C)(C)C)n1)c1ccccc1 [Drug 38],inhibition at 10 ppm,Botrytis cinerea; [2],9%
same,pest or weed control at 100 ppm,"[1]; Botrytis cinerea, 96 h, Table 9, 4 days after inoculation, drug II alone 100 ppm, read-out: Control effect",0%
"C/C(=N\C#N)N(C)Cc1ccc(Cl)nc1 [Drug 42, Acetamiprid]",inhibition at 10 ppm,Botrytis cinerea; [4],0%
same,pest or weed control at 25 ppm,[1]; [6],0%
same,pest or weed control at 400 ppm,"[1]; Botrytis cinerea, 120 h, 5 days after inoculation, read-out: Control effect (%)",0%
"CC(C)NC(=O)N1CC(=O)N(c2cc(Cl)cc(Cl)c2)C1=O [Drug 36, Iprodione]",inhibition at 0.4 ppm,Botrytis cinerea; Example 1 (Tables 1-5),39%
"N#Cc1c[nH]cc1-c1cccc2c1OC(F)(F)O2 [Drug 20, Fludioxonil]",inhibition at 0.02 ppm,Botrytis cinerea; [5],39%
"COc1cc(C)c(C(=O)c2c(OC)ccc(Br)c2C)c(OC)c1OC [Drug 16, Metrafenone]",inhibition at 10 ppm,Botrytis cinerea; [2],0%
"O=[N+]([O-])c1cc(C(F)(F)F)c(Cl)c([N+](=O)[O-])c1Nc1ncc(C(F)(F)F)cc1Cl [Drug 31, Fluazinam]",inhibition at 0.02 ppm,Botrytis cinerea; [5],20%
"CCO[PH](=O)O [Drug 13, Fosetyl]",inhibition at 0.08 ppm,Botrytis cinerea; [7],2%
"CC(C)Oc1cccc(NC(=O)c2ccccc2C(F)(F)F)c1 [Drug 18, Flutolanil]",inhibition at 10 ppm,Botrytis cinerea; [2],0%
"O=C1c2ccccc2C(=O)N1SC(Cl)(Cl)Cl [Drug 37, Folpet]",inhibition at 0.02 ppm,Botrytis cinerea; [5],10%
"Fc1ccc(Oc2ccnc3cc(Cl)cc(Cl)c23)cc1 [Drug 17, Quinoxifen]",Growth inhibition rate,Botrytis cinerea; [3],0%
"CC(C)OC(=O)C(C(=O)OC(C)C)=C1SCCS1 [Drug 41, Isoprothiolane]",inhibition at 10 ppm,Botrytis cinerea; [4],10%
"CN/C(=N/CC1CCOC1)N[N+](=O)[O-] (stereo not shown) [Drug 51, Dinotefuran]",inhibition at 10 ppm,Botrytis cinerea; [4],0%
"CON=C(C(=O)OC)c1ccccc1CON=C(C)c1cccc(C(F)(F)F)c1 [Drug 26, Trifloxystrobin]",inhibition at 0.08 ppm,Botrytis cinerea; [7],32%
"CN1COCN(Cc2cnc(Cl)s2)/C1=N\[N+](=O)[O-] [Drug 46, Thiamethoxam]",inhibition at 10 ppm,Botrytis cinerea; [4],0%
Cc1cc(C(F)(F)F)nn1CC(=O)N1CCC(c2nc(C(=O)N(C)C3CCCc4ccccc43)cs2)CC1 (stereo not shown) [Drug 39],inhibition at 10 ppm,Botrytis cinerea; [2],13%
"CCCCCCCCc1c(CC)nc2ncnn2c1N [Drug 10, Ametoctradin]",Growth inhibition rate,Botrytis cinerea; [2],0%
"Cc1cc(C2CC2)nc(Nc2ccccc2)n1 [Drug 34, Cyprodinil]",inhibition at 0.02 ppm,Botrytis cinerea; [5],0%
"O=C(NCc1ncc(C(F)(F)F)cc1Cl)c1c(Cl)cccc1Cl [Drug 11, Fluopicolide]",Growth inhibition rate,Botrytis cinerea; [2],6%
"CC(C)(C)C(O)(CCc1ccc(Cl)cc1)Cn1cncn1 (stereo not shown) [Drug 22, Tebuconazole]",inhibition at 0.08 ppm,Botrytis cinerea; [7],34%
"CO/C=C(/C(=O)OC)c1ccccc1Oc1cc(Oc2ccccc2C#N)ncn1 [Drug 27, Azoxystrobin]",Growth inhibition rate,Botrytis cinerea; [7],30%
"O=C(NCCc1ncc(C(F)(F)F)cc1Cl)c1ccccc1C(F)(F)F [Drug 30, Fluopyram]",inhibition at 0.08 ppm,Botrytis cinerea; [7],16%
"Cc1c(Cl)cc(-c2ccc(=O)[nH]n2)cc1Cl [Drug 19, Diclomezin]",Growth inhibition rate,Botrytis cinerea; [2],0%
"COP(=S)(OC)Oc1c(Cl)cc(C)cc1Cl [Drug 35, Tolclofos-methyl]",inhibition at 10 ppm,Botrytis cinerea; [2],35%
"CO/N=C(/C(=O)OC)c1ccccc1COc1ccccc1C [Drug 28, Kresoxim-methyl]",inhibition at 0.08 ppm,Botrytis cinerea; [7],20%
"CCOc1ccc(C(C)(C)COCc2cccc(Oc3ccccc3)c2)cc1 [Drug 52, Etofenprox]",inhibition at 10 ppm,Botrytis cinerea; [4],4%
"O=[N+]([O-])NC1=NCCN1Cc1ccc(Cl)nc1 [Drug 45, Imidacloprid]",inhibition at 10 ppm,Botrytis cinerea; [4],0%
"CC1=C(C(=O)Nc2ccccc2)SCCO1 [Drug 23, Carboxin]",inhibition at 0.4 ppm,Botrytis cinerea; Example 1 (Tables 1-5),0%
"CCCOc1nc2ccc(I)cc2c(=O)n1CCC [Drug 15, Proquinazid]",Growth inhibition rate,Botrytis cinerea; [2],0%
"CS/C(C)=N\OC(=O)N(C)SN(C)C(=O)O/N=C(\C)SC [Drug 49, Thiodicarb]",inhibition at 10 ppm,Botrytis cinerea; [4],0%
Manzeb [Drug 32],Growth inhibition rate,Botrytis cinerea; [3],11%
"N#Cc1c(Cl)c(Cl)c(Cl)c(C#N)c1Cl [Drug 25, Chlorothalonil]",inhibition at 0.08 ppm,Botrytis cinerea; [7],4%
Spinosad [Drug 50],Growth inhibition rate,Botrytis cinerea; [4],0%
"CC(C)N1C(=O)N(c2ccccc2)CS/C1=N\C(C)(C)C [Drug 57, Buprofezin]",inhibition at 10 ppm,Botrytis cinerea; [4],0%
"CCNC(=O)NC(=O)/C(C#N)=N/OC [Drug 7, Cymoxanil]",inhibition at 2 ppm,Botrytis cinerea; [3],0%
"Cc1ccc(-c2c(Cl)nc(C#N)n2S(=O)(=O)N(C)C)cc1 [Drug 14, Cyazofamid]",inhibition at 10 ppm,Botrytis cinerea; [2],0%
"CC(C)OC(=O)N[C@H](C(=O)N[C@H](C)c1nc2ccc(F)cc2s1)C(C)C [Drug 8, Benthiavalicarb-isopropyl]",inhibition at 10 ppm,Botrytis cinerea; [2],0%
"CC[S+]([O-])c1c(C#N)nn(-c2c(Cl)cc(C(F)(F)F)cc2Cl)c1N (stereo not shown) [Drug 54, Ethiprole]",inhibition at 10 ppm,Botrytis cinerea; [4],2%
"N#Cc1nn(-c2c(Cl)cc(C(F)(F)F)cc2Cl)c(N)c1[S+]([O-])C(F)(F)F (stereo not shown) [Drug 53, Fipronil]",inhibition at 10 ppm,Botrytis cinerea; [4],12%
"CNC(=O)/C(=N/OC)c1ccccc1CO/N=C(C)/C(=N/OC)C(/C)=N/OC [Drug 40, Orysastrobin]",Growth inhibition rate,Botrytis cinerea; [4],58%
"CC1=NNC(=O)N(/N=C/c2cccnc2)C1 [Drug 55, Pymetrozine]",inhibition at 10 ppm,Botrytis cinerea; [4],3%
"CCOCn1c(-c2ccc(Cl)cc2)c(C#N)c(Br)c1C(F)(F)F [Drug 59, Chlorfenapyr]",pest or weed control at 400 ppm,[1]; [6],0%
"CCC(C)(NC(=O)c1cc(Cl)c(C)c(Cl)c1)C(=O)CCl (stereo not shown) [Drug 12, Zoxamide]",inhibition at 0.4 ppm,Botrytis cinerea; Example 1 (Tables 1-5),3%
"COCC(=O)N(c1c(C)cccc1C)C(C)C(=O)OC (stereo not shown) [Drug 6, Metalaxyl]",inhibition at 10 ppm,Botrytis cinerea; [2],0%
"O=C(Nc1ccccc1-c1ccc(Cl)cc1)c1cccnc1Cl [Drug 58, Boscalid]",pest or weed control at 0.4 ppm,"[1]; Botrytis cinerea, 96 h, 4 days after inoculation, drug II alone 0.4 ppm, read-out: Control effect (%)",0%
same,pest or weed control at 1.6 ppm,"[1]; Botrytis cinerea, 96 h, 4 days after inoculation, drug II alone 1.6 ppm, read-out: Control effect (%)",0%
same,pest or weed control at 6.3 ppm,"[1]; Botrytis cinerea, 96 h, 4 days after inoculation, drug II alone 6.3 ppm, read-out: Control effect (%)",39%
"CN/C(=N\[N+](=O)[O-])NCc1cnc(Cl)s1 [Drug 47, Clothianidin]",inhibition at 10 ppm,Botrytis cinerea; [4],4%
"CN(C)C(=S)SSC(=S)N(C)C [Drug 24, Thiram]",inhibition at 0.08 ppm,Botrytis cinerea; [7],30%
